Tests used:
[1] = molecular target: T1, HA-ARID4B (Homo sapiens, UniProt Q4LE39); assay: CETSA in HEK-293T cells expressing HA-ARID4B; type: cell-based; conditions: 10 μM, 2 h
T1 construct: transfected with vector, full-length ARID4B or ARID4B deletion mutants; expressed in transfected cells; host or cells: HEK-293T
T1 sequence (Q4LE39 1-1312): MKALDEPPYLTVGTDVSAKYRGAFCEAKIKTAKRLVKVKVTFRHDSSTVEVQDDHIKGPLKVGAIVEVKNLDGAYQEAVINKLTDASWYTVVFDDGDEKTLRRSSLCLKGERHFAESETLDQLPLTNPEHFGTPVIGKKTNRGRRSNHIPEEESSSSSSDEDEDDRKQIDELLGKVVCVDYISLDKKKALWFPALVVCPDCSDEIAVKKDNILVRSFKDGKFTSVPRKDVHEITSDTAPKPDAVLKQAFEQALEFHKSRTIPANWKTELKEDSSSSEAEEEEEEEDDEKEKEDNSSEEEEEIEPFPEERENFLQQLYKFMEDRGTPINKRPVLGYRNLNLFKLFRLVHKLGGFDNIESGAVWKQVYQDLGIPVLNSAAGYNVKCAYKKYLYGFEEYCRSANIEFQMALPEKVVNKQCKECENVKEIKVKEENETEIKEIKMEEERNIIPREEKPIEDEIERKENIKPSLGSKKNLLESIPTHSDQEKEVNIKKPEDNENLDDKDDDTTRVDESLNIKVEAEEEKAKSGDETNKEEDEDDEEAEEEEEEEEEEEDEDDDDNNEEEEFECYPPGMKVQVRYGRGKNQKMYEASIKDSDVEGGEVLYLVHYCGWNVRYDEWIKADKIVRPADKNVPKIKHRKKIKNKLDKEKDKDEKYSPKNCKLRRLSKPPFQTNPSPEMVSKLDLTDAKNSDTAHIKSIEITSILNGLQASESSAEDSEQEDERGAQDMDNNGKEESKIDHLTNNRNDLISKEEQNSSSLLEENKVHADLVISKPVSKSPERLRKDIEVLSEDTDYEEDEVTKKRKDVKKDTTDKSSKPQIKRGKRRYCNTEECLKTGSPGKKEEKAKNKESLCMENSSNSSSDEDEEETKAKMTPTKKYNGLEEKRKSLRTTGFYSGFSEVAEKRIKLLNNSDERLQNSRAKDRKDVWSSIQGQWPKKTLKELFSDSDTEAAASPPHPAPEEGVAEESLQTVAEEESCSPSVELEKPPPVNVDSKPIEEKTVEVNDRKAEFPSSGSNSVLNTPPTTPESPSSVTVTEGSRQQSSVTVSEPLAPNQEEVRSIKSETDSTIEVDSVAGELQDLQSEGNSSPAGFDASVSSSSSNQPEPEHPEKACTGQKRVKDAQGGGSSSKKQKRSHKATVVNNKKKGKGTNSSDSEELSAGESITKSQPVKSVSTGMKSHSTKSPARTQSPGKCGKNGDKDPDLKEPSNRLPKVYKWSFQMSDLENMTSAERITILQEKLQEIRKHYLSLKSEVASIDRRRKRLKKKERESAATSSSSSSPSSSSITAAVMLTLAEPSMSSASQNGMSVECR
Description: (B-C) show cells expressing HA-ARID4B (C) or HA-ARID4BIC (D) treated or not with ARD150 (10 μM) for 2 h were used for CESTA. […] (D-E) show cells expressing HA-ARID4B (D) or Flag-ARID4A (E) treated or not with RWR-18 (10 μM) for 2 h were used for CESTA. […] Data are means±SEM from three experiments. *P<0.05, **P<0.01, ns, not significant.
Using CETSA (cellular thermal shift assay) to examine whether ARD150 or RWR-18 binds to ARID4B, MCF7 cells treated or not with ARD150 or RWR-18 for 2 h were collected, followed by heating at 46, 49, 52, 55, and 58° C. to denature and precipitate ARID4B protein, cell lysis, removal of cell debris and aggregates by centrifugation, and finally detection of remaining thermostable ARID4B protein by western blot. The ARID4B aggregation temperatures without ARD150 were determined to be 49-52° C., but shifted to 52-55° C. after treatment with ARD150 and even more so with RWR-18 (FIG. 15A-D). To determine whether ARD150 and RWR-18 targets the chromodomain of ARID4B, CESTA was performed using chromodomain deletion mutant (ARID4BAC). HEK-293T cells expressing HA-ARID4B or HA-ARID4BAC were treated or not with ARD150 (10 μM) for 2 h and processed for CESTA.

[2] = molecular target: T2, ARID4B chromodomain (Homo sapiens, UniProt Q4LE39); assay: Isothermal titration calorimetry (ITC); type: binding
T2 sequence (Q4LE39 572-624 limits assumed): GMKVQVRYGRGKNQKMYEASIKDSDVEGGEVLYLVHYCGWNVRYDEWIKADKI
Text: It was then undertaken to identify compounds that inhibit ARID4B, focusing on the chromodomain therein. First, the structure of ARID4B was created using a homology model based on an optimized computational platform that combines the iterative threading assembly refinement (TASSER) and SWISSMODEL (FIG. 14A-B). Protein structure prioritization was based on protein-model accuracy, quantitatively measured C-score, TM-score and RMSD value. Next, in silico screening of 160,000 drug-like diverse small molecules from MOE's chemical repository combined with biophysical characterization including isothermal calorimetry (ITC, FIG. 16) and circular dichroism (data not shown) of identified compound ARD150 with recombinant ARID4B chromodomain informed chemical synthesis of diverse scaffolds.
Isothermal titration calorimetry (ITC) was used to confirm the binding of ARD150 and its derivative RWR18 (derived from ARD150 with slight structural modifications) to ARID4B chromodomain and to determine the Kd, reaction stoichiometry (n), enthalpy (ΔH) and entropy (ΔS). […] This highlights to power of rational design to tune the target engagement and affinity of ligands.

[3] = tested on: MCF7; assay: MTT proliferation assay, MCF7; type: cell-based; conditions: Homo sapiens, MCF7, 336 h, 14 days
Description: (§1) To determine the EC50 of ARD150 and two of its derivatives in breast cancer, MCF7, ZR75-1 (wild-type ERα+), and MCF7 Y537S (constitutively activate ERα mutant) and their ARID4B KO counterparts were seeded in 24 well plate and treated with the various concentrations (0, 0.1, 1, 5, 10, 20, 40, 60, and 100 μM) of ARD150 and RWR-18 for 14 days. […] Knockout of ARID4B renders cells less sensitive to these compounds.

[4] = tested on: T47D; assay: MTT proliferation assay, T47D; type: cell-based; conditions: data not shown
[5] = tested on: MCF7 Y537S; assay: MTT proliferation assay, MCF7 Y537S; type: cell-based; conditions: data not shown
Description: as §1

[6] = tested on: MCF10A; assay: Proliferation assay, non-tumorigenic MCF10A; type: cell-based; conditions: MCF10A expresses lower ARID4B

SMILES | shift of aggregation temperatures of HA-ARID4B [1] | Kd [2] [nM] | EC50 [3] [µM] | EC50 for T47D [4] | EC50 for MCF7 Y537S [5] | effect on non-tumorigenic MCF10A [6]
COc1ccc(C(=O)NCCCN2CCOCC2)cc1OC [ARD150] | resulted in a shift of aggregation temperatures | 3500 | 13.8 | comparable to that of MCF7 | comparable to that of MCF7 | insensitive
O=C(COc1ccc(OCc2ccccc2)cc1)NCCCN1CCOCC1 [RWR-18] | resulted in a shift of aggregation temperatures | 1000 | 7.9 | comparable to that of MCF7 | comparable to that of MCF7 | insensitive

Reference: patent publication US20250099405A1, “COMPOSITIONS, METHODS, AND DEVELOPMENT OF ARID4B INHIBITORS” (University of Kentucky Research Foundation, priority 2022, published 2025)
